Experimental data as given in patent US9242996B2 (Novartis AG, priority 2013, dated 2016).

Experiments:
Assay type in all cases: biochemical
ERK2 = ERK2 (Homo sapiens (Human), UniProt P28482); test: ERK2 Alphascreen
activated ERK2 [1] = target: T1, activated ERK2 (Homo sapiens (Human), UniProt P28482); test: Activated ERK2 kinase assay, ERK2 New conditions (AlphaScreen, ERKtide phosphorylation); conditions: 0.25 nM ERK2, 200 nM ERKtide peptide, 35 μM ATP, 30 min preincubation
Outline: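 0.25 nM ERK2 preincubated 30 min with compound, then reacted 2–3 h at ambient temperature with 200 nM ERKtide and 35 µM ATP (final) in HEPES pH 7.5 buffer. EDTA stop; phospho-peptide detected by AlphaScreen after overnight incubation; IC50 from four-parameter fit.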

activated ERK2 [2] = target: T1, activated ERK2; test: Activated ERK2 (20 pM) Kinase Assay (AlphaScreen, ERKtide phosphorylation); conditions: 0.02 nM ERK2, 400 nM ERKtide peptide, 35 μM ATP, 30 min preincubation
Outline: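 Activated human ERK2 (0.02 nM) preincubated 30 min with compounds, then 400 nM ERKtide and 35 μM ATP added for 4 h at ambient temperature in HEPES pH 7.5, MgCl2, DTT, Tween-20, BSA. EDTA stop; phospho-peptide read by AlphaScreen after overnight dark incubation; four-parameter IC50.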

Sequence of ERK2 (P28482 whole entry, species assumed): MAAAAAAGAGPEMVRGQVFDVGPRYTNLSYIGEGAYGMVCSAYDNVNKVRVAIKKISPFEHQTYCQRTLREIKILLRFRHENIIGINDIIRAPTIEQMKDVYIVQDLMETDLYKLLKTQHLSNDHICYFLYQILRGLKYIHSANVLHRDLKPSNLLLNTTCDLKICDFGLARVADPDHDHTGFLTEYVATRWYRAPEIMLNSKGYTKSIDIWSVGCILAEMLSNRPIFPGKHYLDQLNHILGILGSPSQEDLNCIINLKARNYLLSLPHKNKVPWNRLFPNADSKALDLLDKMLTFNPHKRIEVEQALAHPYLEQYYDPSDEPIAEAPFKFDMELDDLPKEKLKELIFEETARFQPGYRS
T1 sequence (P28482 whole entry): as the sequence (P28482 whole entry, species assumed) above

IC50 (ERK2) [nM] | IC50 (activated ERK2 [1]) [nM] | IC50 (activated ERK2 [2]) [nM] | Compound
19.4 | 25.2 |  | Cc1cccc(CNC(=O)c2ccc(-c3nc(C4CCOCC4)cnc3N)cc2F)n1 [Example 334, 4-(3-amino-6-(tetrahydro-2H-pyran-4-yl)pyrazin-2-yl)-2-fluoro-N-((6-methylpyridin-2-yl)methyl) benzamide]
11 |  | 7.38 | Nc1ncc(N2CCOCC2)cc1-c1ccc(C(=O)N[C@H](CO)c2ccccc2)cc1 [Example 122, (S)-4-(2-amino-5-morpholinopyridin-3-yl)-N-(2-hydroxy-1-phenylethyl)benzamide]
0.265 |  | 0.364 | Cc1cnccc1-c1cnc(N)c(-c2ccc(C(=O)N[C@H](CO)c3ccccc3)c(F)c2)n1 [Example 143, (S)-4-(3-amino-6-(3-methylpyridin-4-yl)pyrazin-2-yl)-2-fluoro-N-(2-hydroxy-1-phenylethyl)benzamide]
1.84 |  | 0.684 | Cc1cc(-c2cc(C3CCOCC3)cnc2N)ccc1C(=O)N[C@H](CO)c1ccccc1 [Example 65, (S)-4-(2-amino-5-(tetrahydro-2H-pyran-4-yl)pyridin-3-yl)-N-(2-hydroxy-1-phenylethyl)-2-methylbenzamide]
887 |  | 505 | Nc1ncc(C2CCOCC2)cc1-c1ccc(C(=O)NCc2cccnc2)cc1 [Example 93, 4-(2-amino-5-(tetrahydro-2H-pyran-4-yl)pyridin-3-yl)-N-(pyridin-3-ylmethyl)benzamide]
267 |  | 135 | CC(=O)Nc1cccc(CNC(=O)c2ccc(-c3cc(C4CCOCC4)cnc3N)cc2)c1 [Example 92, N-(3-acetamidobenzyl)-4-(2-amino-5-(tetrahydro-2H-pyran-4-yl)pyridin-3-yl)benzamide]
311 |  | 381 | Nc1ncc(C2CCOCC2)cc1-c1ccc(C(=O)NCc2ccnnc2)c(F)c1 [Example 318, 4-(2-amino-5-(tetrahydro-2H-pyran-4-yl)pyridin-3-yl)-2-fluoro-N-(pyridazin-4-ylmethyl) benzamide]
559 |  | 284 | Nc1ncc(C2CCOCC2)cc1-c1ccc(C(=O)NCC2CC2)cc1 [Example 91, 4-(2-amino-5-(tetrahydro-2H-pyran-4-yl)pyridin-3-yl)-N-(cyclopropylmethyl)benzamide]
3.64 |  | 4.36 | Nc1ncc(C2CCOCC2)cc1-c1ccc(C(=O)N[C@H](CO)c2ccccc2)cc1 [Example 64, (S)-4-(2-amino-5-(tetrahydro-2H-pyran-4-yl)pyridin-3-yl)-N-(2-hydroxy-1-phenylethyl)benzamide]
574 |  | 331 | Cc1cc(C(=O)N[C@H](CO)c2ccccc2)ccc1-c1cc(C2CCOCC2)cnc1N [Example 70, (S)-4-(2-amino-5-(tetrahydro-2H-pyran-4-yl)pyridin-3-yl)-N-(2-hydroxy-1-phenylethyl)-3-methylbenzamide]
2.13 |  | 0.9 | Cc1cnccc1-c1cnc(N)c(-c2ccc(C(=O)N[C@H](CO)c3ccccc3)cc2)c1 [Example 82, (S)-4-(6-amino-3′-methyl-3,4′-bipyridin-5-yl)-N-(2-hydroxy-1-phenylethyl)benzamide]
55.3 |  | 41.8 | Nc1ncc(C2CCOCC2)cc1-c1ccc(C(=O)NCc2ccccc2)cc1 [Example 66, 4-(2-amino-5-(tetrahydro-2H-pyran-4-yl)pyridin-3-yl)-N-benzylbenzamide]
0.544 |  | 0.593 | (S)-4-(3-amino-6- (tetrahydro-2H- pyran-4- yl)pyrazin-2-yl)-2- fluoro-N-(2- hydroxy-1- phenylethyl) benzamide [Example 325]
266 |  | 209 | Nc1ncc(C2CCOCC2)cc1-c1ccc(C(=O)NCc2ccccc2Cl)cc1 [Example 87, 4-(2-amino-5-(tetrahydro-2H-pyran-4-yl)pyridin-3-yl)-N-(2-chlorobenzyl)benzamide]
49 |  | 33 | Nc1ncc(C2CCOCC2)cc1-c1ncc(C(=O)N[C@H](CO)c2ccccc2)cn1 [Example 90, (S)-2-(2-amino-5-(tetrahydro-2H-pyran-4-yl)pyridin-3-yl)-N-(2-hydroxy-1-phenylethyl)pyrimidine-5-carboxamide]
0.758 |  |  | Nc1ncc(C2CCOCC2)nc1-c1ccc(C(=O)NCc2cccc(Cl)c2)c(F)c1 [Example 173, 4-(3-amino-6-(tetrahydro-2H-pyran-4-yl)pyrazin-2-yl)-N-(3-chlorobenzyl)-2-fluorobenzamide]

IC50 (ERK2) [nM] | IC50 (activated ERK2 [1]) [nM] | IC50 (activated ERK2 [2]) [nM] | Compound
0.914 |  | 0.879 | Nc1ncc(C2CCOCC2)cc1-c1ccc(C(=O)N[C@H](CO)c2ccccc2)c(F)c1 [Example 94, (S)-4-(2-amino-5-(tetrahydro-2H-pyran-4-yl)pyridin-3-yl)-2-fluoro-N-(2-hydroxy-1-phenylethyl)benzamide]
97.6 |  | 50.8 | Nc1ncc(C2CCS(=O)(=O)CC2)cc1-c1ccc(C(=O)N[C@H](CO)c2ccccc2)cc1 [Example 77, (S)-4-(2-amino-5-(1,1-dioxidotetrahydro-2H-thiopyran-4-yl)pyridin-3-yl)-N-(2-hydroxy-1-phenylethyl)benzamide]
85.5 |  | 67.7 | CN(C)c1cccc(CNC(=O)c2ccc(-c3cc(C4CCOCC4)cnc3N)cc2)c1 [Example 67, 4-(2-amino-5-(tetrahydro-2H-pyran-4-yl)pyridin-3-yl)-N-(3-(dimethylamino)benzyl)benzamide]
4.78 |  | 3.75 | Nc1ncc(C2CCOCC2)cc1-c1ccc(C(=O)NCc2cccc(Cl)c2)cc1 [Example 86, 4-(2-amino-5-(tetrahydro-2H-pyran-4-yl)pyridin-3-yl)-N-(3-chlorobenzyl)benzamide]
0.533 |  | 0.136 | Cc1cc(-c2nc(C3CCOCC3)cnc2N)ccc1C(=O)N[C@H](CO)c1ccccc1 [Example 95, (S)-4-(3-amino-6-(tetrahydro-2H-pyran-4-yl)pyrazin-2-yl)-N-(2-hydroxy-1-phenylethyl)-2-methylbenzamide]
0.584 |  | 0.51 | Nc1ncc(-c2ccncc2)cc1-c1ccc(C(=O)N[C@H](CO)c2ccccc2)cc1 [Example 80, (S)-4-(6-amino-[3,4′-bipyridin]-5-yl)-N-(2-hydroxy-1-phenylethyl)benzamide]
192 |  |  | Nc1ncc(C2CCNCC2)cc1-c1ccc(C(=O)N[C@H](CO)c2ccccc2)c(F)c1 [Example 2, (S)-4-(2-amino-5-(piperidin-4-yl)pyridin-3-yl)-2-fluoro-N-(2-hydroxy-1-phenylethyl)benzamide]
81.4 |  | 70.5 | Nc1ncc(C2CCOCC2)cc1-c1ccc(C(=O)NCc2ccc(Cl)cc2)cc1 [Example 88, 4-(2-amino-5-(tetrahydro-2H-pyran-4-yl)pyridin-3-yl)-N-(4-chlorobenzyl)benzamide]
26.3 |  | 15.8 | COC(=O)N1CCC(c2cnc(N)c(-c3ccc(C(=O)N[C@H](CO)c4ccccc4)cc3)c2)CC1 [Example 98, (S)-methyl 4-(6-amino-5-(4-((2-hydroxy-1-phenylethyl)carbamoyl)phenyl)pyridin-3-yl)piperidine-1-carboxylate]
9.64 |  | 2.05 | C[C@@H]1COCCN1c1cnc(N)c(-c2ccc(C(=O)N[C@H](CO)c3ccccc3)c(F)c2)c1 [Example 84, 4-(2-amino-5-((R)-3-methylmorpholino)pyridin-3-yl)-2-fluoro-N-((S)-2-hydroxy-1-phenylethyl)benzamide]
17.2 |  | 8.78 | Nc1ncc(C2CCOCC2)cc1-c1ccc(C(=O)N[C@H](CO)c2ccccc2)cc1F [Example 71, (S)-4-(2-amino-5-(tetrahydro-2H-pyran-4-yl)pyridin-3-yl)-3-fluoro-N-(2-hydroxy-1-phenylethyl)benzamide]
 | 0.503 | 0.221 | C[C@@H](NC(=O)c1ccc(-c2nc(C3=CCOCC3)cnc2N)cc1F)c1cc(F)cc(S(C)(=O)=O)c1 [Example 429, (R)-4-(3-amino-6-(3,6-dihydro-2H-pyran-4-yl)pyrazin-2-yl)-2-fluoro-N-(1-(3-fluoro-5-(methylsulfonyl)phenyl)ethyl) benzamide]
16 |  | 10 | C[C@@H](NC(=O)c1ccc(-c2cc(C3CCOCC3)cnc2N)cc1)c1ccccc1 [Example 69, (R)-4-(2-amino-5-(tetrahydro-2H-pyran-4-yl)pyridin-3-yl)-N-(1-phenylethyl)benzamide]
 | 4.1 | 1.87 | CN1CC[C@@H](c2cnc(N)c(-c3ccc(C(=O)N[C@H](CO)c4cccc(Cl)c4)c(F)c3)c2)CC1=O [Example 27, 4-(2-amino-5-((R)-1-methyl-2-oxopiperidin-4-yl)pyridin-3-yl)-N—((S)-1-(3-chlorophenyl)-2-hydroxyethyl)-2-fluorobenzamide]
 | 0.192 | 0.0814 | Cn1cc(-c2cnc(N)c(-c3ccc(C(=O)N[C@H](CO)c4cc(F)cc(Cl)c4)c(F)c3)c2)cn1 [Example 289, (S)-4-(2-amino-5-(1-methyl-1H-pyrazol-4-yl)pyridin-3-yl)-N-(1-(3-chloro-5-fluorophenyl)-2-hydroxyethyl)-2-fluorobenzamide]
9.8 |  | 20.2 | Nc1ncc(C2CCOCC2)cc1-c1ccc(C(=O)NCc2cccc(C(F)(F)F)c2)cc1 [Example 89, 4-(2-amino-5-(tetrahydro-2H-pyran-4-yl)pyridin-3-yl)-N-(3-(trifluoromethyl)benzyl)benzamide]
